Results reported in patent US10934309B2, “Tricyclic quinone derivative” (Boston Biomedical, Inc., priority 2014, dated 2021).

Columns and labels:
Assay type in all cases: cell-based, human
HT-29 cells [1] = test: Proliferation inhibition assay of cancer cells (Test Example 1), HT-29; details: HT-29 cells, cultured for 4 days, Cell Titer-Glo, read-out: IC50 (μM) HT, concentration for 50% inhibition of cell proliferation (Bulk IC50 value)
Experimental: (§1) HCT-116 cells (derived from human colon adenocarcinoma), HT-29 cells (derived from human colon cancer), and FaDu cells (derived from human hypopharynx cancer) were obtained from American Type Culture Collection (ATCC). […] After cells were seeded at 300-600 cells/well onto black μClear-plate 384 well (Greiner bio-one Cat. No. 781091), a test substance was added such that the final concentration of DMSO is 0.1%, and cultured for 4 days. […] A test shown in Test example 1 was carried out for compounds obtained in the Examples.

HCT-116 cells [2] = test: Inhibition assay of cancer cell sphere-forming ability (Test Example 2), HCT-116; details: HCT-116 cells, Ultra-Low Attachment plate, serum-free DMEM/F12 with B27, EGF, bFGF, insulin, 4 days, Cell Titer-Glo, read-out: IC50 (μM) HCT, concentration for 50% inhibition of cell proliferation (Sphere IC50 value)
Experimental: (§2) HCT-116 cells (derived from human colon adenocarcinoma), HT-29 cells (derived from human colon cancer), FaDu cells (derived from human hypopharynx cancer) were obtained from American Type Culture Collection (ATCC). […] HCT-116 cells, HT-29 cells, and FaDu cells were seeded onto 384 Well Black Clear Bottom Ultra-Low Attachment Microplate (Corning Cat. […] A test substance was added so that the final concentration of DMSO is 0.1%, and then cultured for 4 days. […] A test shown in Test example 2 was carried out for compounds obtained in the Examples.

HT-29 cells [3] = test: Inhibition assay of cancer cell sphere-forming ability (Test Example 2), HT-29; details: HT-29 cells, Ultra-Low Attachment plate, serum-free DMEM/F12 with B27, EGF, bFGF, insulin, 4 days, Cell Titer-Glo, read-out: IC50 (μM) HT, concentration for 50% inhibition of cell proliferation (Sphere IC50 value)
Experimental: as §2

HCT-116 cells [4] = test: Proliferation inhibition assay of cancer cells (Test Example 1), HCT-116; details: HCT-116 cells, cultured for 4 days, Cell Titer-Glo, read-out: IC50 (μM) HCT, concentration for 50% inhibition of cell proliferation (Bulk IC50 value)
Experimental: as §1

FaDu cells [5] = test: Inhibition assay of cancer cell sphere-forming ability (Test Example 2), FaDu; details: FaDu cells, Ultra-Low Attachment plate, serum-free DMEM/F12 with B27, EGF, bFGF, insulin, 4 days, Cell Titer-Glo, read-out: IC50 (μM) FaDu, concentration for 50% inhibition of cell proliferation (Sphere IC50 value)
Experimental: as §2

FaDu cells [6] = test: Proliferation inhibition assay of cancer cells (Test Example 1), FaDu; details: FaDu cells, cultured for 4 days, Cell Titer-Glo, read-out: IC50 (μM) FaDu, concentration for 50% inhibition of cell proliferation (Bulk IC50 value)
Experimental: as §1

Compound | IC50 (HT-29 cells [1]; Homo sapiens, HT-29, 96 h) | IC50 (HCT-116 cells [2]; Homo sapiens, HCT-116, 96 h) | IC50 (HT-29 cells [3]; Homo sapiens, HT-29, 96 h) | IC50 (HCT-116 cells [4]; Homo sapiens, HCT-116, 96 h) | IC50 (FaDu cells [5]; Homo sapiens, FaDu, 96 h) | IC50 (FaDu cells [6]; Homo sapiens, FaDu, 96 h) | IC50 (HT-29 cells [1]) | IC50 (HCT-116 cells [2]) | IC50 (HT-29 cells [3]) | IC50 (HCT-116 cells [4]) | IC50 (FaDu cells [5]) | IC50 (FaDu cells [6])
CC(=O)c1cc2c(o1)C(=O)c1ccsc1C2=O [Example 56, 2-acetylthieno[2,3-f][1]benzofuran-4,8-dione] | 0.62 µM | 0.06 µM | 0.58 µM | 0.09 µM | 0.08 µM | 0.56 µM |  |  |  |  |  | 
C[C@@H]1CN(C(=O)c2cc3c(s2)C(=O)c2nccnc2C3=O)C[C@H](C)O1 [Example 58, 7-{[(2R,6S)-2,6-dimethylmorpholin-4-yl]carbonyl}thieno[2,3-g]quinoxaline-5,9-dione] | 7.06 µM | 0.56 µM | 5.97 µM | 0.64 µM | 0.76 µM | 3.71 µM |  |  |  |  |  | 
CCN(Cc1cc2c(s1)C(=O)c1cccnc1C2=O)C1CCCCC1 [Example 5, 2-{[cyclohexyl(ethyl)amino]methyl}thieno[2,3-g]quinoline-4,9-dione] | 0.92 µM | 0.39 µM | 0.57 µM | 0.45 µM | 0.5 µM | 0.54 µM |  |  |  |  |  | 
CC(=O)c1cc2c(o1)C(=O)c1cccnc1C2=O [Example 42, 2-acetylfuro[2,3-g]quinoline-4,9-dione] | 0.72 µM | 0.31 µM | 0.59 µM | 0.54 µM | 0.08 µM | 0.47 µM |  |  |  |  |  | 
CC(C)(C)OC(=O)NCc1cc2c(s1)C(=O)c1ncccc1C2=O [Example 41, tert-butyl (4,9-dioxo-4,9-dihydrothieno[3,2-g]quinolin-2-yl)methylcarbamate] | 4.52 µM | 0.83 µM | 3.82 µM | 0.7 µM | 0.46 µM | 0.78 µM |  |  |  |  |  | 
CC(O)c1cc2c(o1)C(=O)c1cccnc1C2=O (stereo not drawn) [Example 43, 2-(1-hydroxyethyl)furo[2,3-g]quinoline-4,9-dione] | 5.62 µM | 0.51 µM | 0.6 µM | 0.62 µM | 0.33 µM | 0.66 µM |  |  |  |  |  | 
O=C(NCC(F)F)c1cc2c(s1)C(=O)c1ncccc1C2=O [Example 40, N-(2,2-difluoroethyl)-4,9-dioxo-4,9-dihydroxythieno[3,2-g]quinoline-2-carboxyamide] |  |  |  |  |  |  | 0.55 µM | 0.08 µM | 0.51 µM | 0.07 µM | 0.05 µM | 0.05 µM
CC(O)c1cc2c(o1)C(=O)c1ncccc1C2=O (stereo not drawn) [Example 51, 2-(1-hydroxyethyl)furo[3,2-g]quinoline-4,9-dione] | 0.84 µM | 0.09 µM | 0.43 µM | 0.39 µM | 0.08 µM | 0.49 µM |  |  |  |  |  | 
O=C1c2cnccc2C(=O)c2sc(CO)cc21 [Example 14, 2-(1-hydroxymethyl)thieno[2,3-g]isoquinoline-4,9-dione] | 0.48 µM | 0.09 µM | 0.09 µM | 0.06 µM | 0.02 µM | 0.03 µM |  |  |  |  |  | 
CC(=O)c1oc2c(c1C(=O)N1CCOCC1)C(=O)c1cnccc1C2=O [Example 47, 2-acetyl-3-(morpholin-4-carbonyl)furo[2,3-g]isoquinoline-4,9-dione] | 0.41 µM | 0.26 µM | 0.17 µM | 0.36 µM | 0.05 µM | 0.05 µM |  |  |  |  |  | 
CC(c1cc2c(s1)C(=O)c1ccncc1C2=O)N1CCOCC1 (stereo not drawn) [Example 23, 2-[1-(morpholin-4-yl)ethyl]thieno[2,3-g]isoquinoline-4,9-dione] | 0.58 µM | 0.31 µM | 0.48 µM | 0.1 µM | 0.04 µM | 0.03 µM |  |  |  |  |  | 
CC(=O)c1cc2c(o1)C(=O)c1ccncc1C2=O [Example 44, 2-acetylfuro[2,3-g]isoquinoline-4,9-dione] | 0.51 µM | 0.06 µM | 0.08 µM | 0.06 µM | 0.04 µM | 0.03 µM |  |  |  |  |  | 
CC(C)(O)c1cc2c(o1)C(=O)c1sccc1C2=O [Example 54, 2-(2-hydroxypropan-2-yl)thieno[3,2-f][1]benzofuran-4,8-dione] | 2.47 µM | 0.6 µM | 0.77 µM | 0.61 µM | 0.59 µM | 0.67 µM |  |  |  |  |  | 
CCN(Cc1cc2c(o1)C(=O)c1cccnc1C2=O)C(=O)CC(C)C [Example 9, N-[(4,9-dioxo-4,9-dihydrofuro[2,3-g]quinolin-2-yl)methyl]-N-ethyl-3-methylbutanamide] | > 10 µM | 0.28 µM | 0.61 µM | 0.53 µM | 0.1 µM | 0.6 µM |  |  |  |  |  | 
CC(=O)c1cc2c(s1)C(=O)c1ncccc1C2=O [Example 36, 2-acetylthieno[3,2-g]quinoline-4,9-dione] | 0.73 µM | 0.07 µM | 0.25 µM | 0.1 µM | 0.05 µM | 0.09 µM |  |  |  |  |  | 
O=C1c2cnccc2C(=O)c2sc(N3CCOCC3)cc21 [Example 32, 2-(morpholin-4-yl)thieno[2,3-g]isoquinoline-4,9-dione] | > 10 µM | 7.7 µM | > 10 µM | 6.56 µM | 1.25 µM | 2.15 µM |  |  |  |  |  | 
CC(=O)c1cc2c(o1)C(=O)c1cnccc1C2=O [Example 48, 2-acetylfuro[3,2-g]isoquinoline-4,9-dione] | 0.62 µM | 0.07 µM | 0.55 µM | 0.07 µM | 0.05 µM | 0.06 µM |  |  |  |  |  | 
C#Cc1cc2c(s1)C(=O)c1ccncc1C2=O [Example 61, 2-ethynylthieno[2,3-g]isoquinoline-4,9-dione] | 0.54 µM | 0.28 µM | 0.24 µM | 0.19 µM | 0.05 µM | 0.05 µM |  |  |  |  |  | 
CC(O)c1cc2c(s1)C(=O)c1cccnc1C2=O (stereo not drawn) [Example 2, 2-(1-hydroxyethyl)thieno[2,3-g]quinoline-4,9-dione] | 0.86 µM | 0.23 µM | 0.55 µM | 0.08 µM | 0.12 µM | 0.1 µM |  |  |  |  |  | 
CCOC(c1cc2c(s1)C(=O)c1ccncc1C2=O)C1CC1 (stereo not drawn) [Example 17, 2-[cyclopropyl(ethoxy)methyl]thieno[2,3-g]isoquinoline-4,9-dione] | 0.87 µM | 0.55 µM | 0.54 µM | 0.41 µM | 0.05 µM | 0.84 µM |  |  |  |  |  | 
CCN(Cc1cc2c(s1)C(=O)c1ccncc1C2=O)C1CCCCC1 [Example 25, 2-{[Cyclohexyl(ethyl)amino]methyl}thieno[2,3-g]isoquinoline-4,9-dione] | 0.96 µM | 0.8 µM | < 0.01 µM | 0.69 µM | 0.06 µM | 0.46 µM |  |  |  |  |  | 
CCOC(=O)/C=C/c1cc2c(s1)C(=O)c1ccncc1C2=O [Example 60, ethyl (E)-3-(4,9-dioxo-4,9-dihydrothieno[2,3-g]isoquinolin-2-yl)acrylate] | > 10 µM | 7.41 µM | 8.98 µM | 2.71 µM | 0.83 µM | 0.75 µM |  |  |  |  |  | 
O=C1c2ccncc2C(=O)c2c(C(=O)N3CCOCC3)csc21 [Example 22, 3-(morpholin-4-ylcarbonyl)thieno[2,3-g]isoquinoline-4,9-dione] | 0.81 µM | 0.5 µM | 0.16 µM | 0.48 µM | 0.31 µM | 0.44 µM |  |  |  |  |  | 
